Laboratory results from patent publication US5962525A, “6,7-disubstituted-2-aminotetralines active as immunomodulators and pharmaceutical compositions containing same” (Sigma-Tau, priority 1990, dated 1999).
Where two headings read alike, the source gives them in different places.

Tests used:
[1] = test system: murine peritoneal macrophages; tumor targets Daudi and CEM-CM3; assay: "In vitro-ex vivo" effect on the cytotoxic activity of peritoneal macrophages (lysis of 3H-TdR labelled tumor cells); set-up: species or system mouse (B6 D2 F1, C57B16); tumor targets human
Method: Assessment of the "in vitro-ex vivo" effect of ST 557, ST 563, ST 570 and ST 626 on the cytotoxic activity of peritoneal macrophages (M)
Male hybrid B6 D2 F1 aged 7-9 weeks and male inbred mice C57B16 aged 8 weeks were used (4 animals/group).
All the compounds were administered i.p. (25 mg/kg/day). ST 557 was also administered per os (100 mg/kg/day) from day -5 to day -1 (peritoneal exudate cell [PEC] harvesting at day 0).
PEC were obtained from sacrificed animals, 24 hours following the end of treatment, via repeated washings of the abdominal cavity. The peritoneal exudates obtained from each group of animals were pooled.
The macrophage percentage was assessed by counting in a Burker chamber; cell suspensions (concentration=2×10^6 M/ml) were prepared.
The macrophage cytotoxic activity was assessed using the following two tumor cell lines as targets: Daudi, derived from a human lymphoblastoma and CEM-CM3, derived from human lymphoblastic leukemia (both lines are disclosed in ATCC--American Type Culture Collection--Cell lines of hybridoma, 5th Ed.--1985).
The experimental procedure is substantially the same as that described by Herscowitz, H. B. (1981)--Manual of Macrophage Methodology. Dekker M, Editor.
In particular, samples of cell lines were labelled with ^3 H-TdR (tritiated thymidine) and their concentration was adjusted to 5×10^4 cells/ml. They were then added to the macrophage preparations (using 96-well microtiter plates) and the volumes were adjusted so as to obtain Effector (macrophage)/Target (tumor cell) ratios of 20:1; 40:1 and 80:1 in an overall volume of 0.3 ml/well.
Three replicates for each sample were prepared; after 48 and 72 hours of incubation at 37° C. in 5% CO2. Aliquots of 0.1 ml of supernatant were drawn out from each well and counted in a β-counter.
The macrophage cytotoxic activity results in a tumor cell lysis that causes the release of the radioactivity incorporated by the cells into the supernatant.
Based on the βeta-counter data (in cpm) this activity is expressed as the percentage of radioactivity released following lysis with respect to the radioactivity incorporated by the tumor cells.
The relevant formulas are as follows: [formula]
The measures carried out on the samples account for a certain degree of lysis occurring spontaneously in cultured tumor cells not exposed to macrophages. Total radioactivity incorporated by the tumor cells is calculated by conducting a lysis with 1% SDS in distilled water.

splenocytes = assay: "In vitro-ex vivo" effect on the mytogen (PHA, ConA, LPS)-induced splenocyte proliferation in mice immunodepressed with cyclophosphamide; set-up: species or system mouse (B6 D2 F1); conditions: for S.I. (stimulation index): with respect to the immunodepressed controls; for AUC (area under curve): immunodepressed
Method: Assessment of the "in vitro-ex vivo" effect of ST 557, ST 563 ST 564 on the mytogen (PHA, ConA, LPS)-Induced splenocyte proliferation in mice Immunodepressed with cyclotohosphamide
Male B6 D2 F1 mice aged 7-9 weeks (5 mice per group) were used.
The immunosuppressor (cyclophosphamide) was administered i.p. at the dose of 100 mg/kg at day -5. The compounds were administered i.p. (25 mg/kg/day) and per os (100 mg/kg/day) from day -5 to day -1 (spleen excision at day 0).
Splenocyte proliferation was induced by three different mytogens: PHA and ConA active on T-lymphocytes, and LPS active on B-lymphocytes. Each mytogen was tested at three different concentrations (suboptimal, optimal and superoptimal) corresponding to 0.5, 4 and 6 mcg/ml/well for PHA; 0.5, 4 and 8 mcg/ml/well for ConA and 0.5, 150 and 500 mcg/ml/well for LPS.
The experimental procedure is identical to that described in test 4.
The results are expressed as both AUC (see test 4) and S.I. In order to assess the efficacy of the immunosuppressor and the activity of the tested compounds, S.I. has been determined both for the immunodepressed controls (with respect to the normal controls) and for the immunodepressed treated animals (with respect to the immunodepressed controls), respectively. [formula]

[2] = Tolerability after oral or intravenous administration; set-up: species or system mouse (Swiss albino); conditions: mouse, in vivo, 7 days observation, read-out: Tolerability, dose
Method: The test was conducted in male Swiss albino mice weighing 22-24 g.
A group of animals (4 animals/dose) which had been kept fasting for 18 hours, were orally administered the compounds ST 557, ST 563, ST 564 and ST 570 dissolved in twice distilled water.
A further group of animals, which had free access to food and water, were administered intravenously the same compounds dissolved in saline it pH 7. All the animals were kept under observation for 7 days.

LD50, intravenous = conditions: mouse, in vivo, 0.9% saline
Method: LD50 was determined according to Carrol S. Weil's method, Biometrics, pages 249-263 (1952) in male Swiss albino mice weighing 22-24 g.
The various compounds dissolved in 0.9% saline were administered intravenously.

[3] = 48 hours, E/T 20:1, 25 mg/kg/day i.p., B6 D2 F1
[4] = 48 hours, E/T 20:1, 25 mg/kg/day i.p., repeated experiment, B6 D2 F1
[5] = 48 hours, E/T 40:1, 25 mg/kg/day i.p., B6 D2 F1
[6] = 48 hours, E/T 40:1, 25 mg/kg/day i.p., repeated experiment, B6 D2 F1
[7] = 48 hours, E/T 80:1, 25 mg/kg/day i.p., repeated experiment, B6 D2 F1
[8] = 72 hours, E/T 20:1, 25 mg/kg/day i.p., B6 D2 F1
[9] = 72 hours, E/T 20:1, 25 mg/kg/day i.p., repeated experiment, B6 D2 F1
[10] = 72 hours, E/T 40:1, 25 mg/kg/day i.p., B6 D2 F1
[11] = 72 hours, E/T 40:1, 25 mg/kg/day i.p., repeated experiment, B6 D2 F1
[12] = 72 hours, E/T 80:1, 25 mg/kg/day i.p., repeated experiment, B6 D2 F1

Structure (SMILES)	% lysis of tumor target [1, 3]	% lysis of tumor target [1, 4]	% lysis of tumor target [1, 5]	% lysis of tumor target [1, 6]	% lysis of tumor target [1, 7]	% lysis of tumor target [1, 8]	% lysis of tumor target [1, 9]	% lysis of tumor target [1, 10]	% lysis of tumor target [1, 11]	% lysis of tumor target [1, 12]	S.I. (stimulation index) (splenocytes; ConA, 25 mg/kg/day i.p.)	S.I. (stimulation index) (splenocytes; ConA, 100 mg/kg/day os)	AUC (area under curve) (splenocytes; ConA, 25 mg/kg/day i.p.)	AUC (area under curve) (splenocytes; ConA, 100 mg/kg/day os)	S.I. (stimulation index) (splenocytes; LPS, 25 mg/kg/day i.p.)	S.I. (stimulation index) (splenocytes; LPS, 100 mg/kg/day os)	AUC (area under curve) (splenocytes; LPS, 25 mg/kg/day i.p.)	AUC (area under curve) (splenocytes; LPS, 100 mg/kg/day os)	S.I. (stimulation index) (splenocytes; PHA, 25 mg/kg/day i.p.)	AUC (area under curve) (splenocytes; PHA, 25 mg/kg/day i.p.)	other results
COc1cc2c(cc1OC)CC(N(CC1CC1)CC1CC1)CC2 (stereo not drawn) [ST 557, 2-[(N,N-dicyclopropylmethyl)amino]-6,7-dimethoxytetraline]	10.7 ± 0.2%	7.8 ± 0.7%	24.6 ± 0.8%	13.2 ± 0.7%	32.4 ± 0.9%	13.1 ± 0.3%	13.0 ± 0.7%	29.3 ± 0.9%	18.7 ± 0.9%	45.3 ± 0.9%	1.50	0.92	763 ± 14 ×10^-3	675 ± 21 ×10^-3	5.85	0.97	6411 ± 214 ×10^-3	4485 ± 433 ×10^-3	1.90	191 ± 10 ×10^-3	% lysis of tumor target ([1]; 48 hours, E/T 20:1, 25 mg/kg/day i.p., repeated experiment, C57B16 mice): 10.8 ± 0.6%; % lysis of tumor target ([1]; 48 hours, E/T 20:1, 100 mg/kg/day os, B6 D2 F1): 22.7 ± 0.6%; % lysis of tumor target ([1]; 48 hours, E/T 40:1, 25 mg/kg/day i.p., repeated experiment, C57B16 mice): 16.4 ± 0.8%; % lysis of tumor target ([1]; 48 hours, E/T 40:1, 100 mg/kg/day os, B6 D2 F1): 30.1 ± 0.7%; % lysis of tumor target ([1]; 48 hours, E/T 80:1, 25 mg/kg/day i.p., repeated experiment, C57B16 mice): 28.3 ± 0.5%; % lysis of tumor target ([1]; 48 hours, E/T 80:1, 100 mg/kg/day os, B6 D2 F1): 29.7 ± 0.9%; % lysis of tumor target ([1]; 72 hours, E/T 20:1, 25 mg/kg/day i.p., repeated experiment, C57B16 mice): 11.9 ± 0.7%; % lysis of tumor target ([1]; 72 hours, E/T 20:1, 100 mg/kg/day os, B6 D2 F1): 29.7 ± 1.2%; % lysis of tumor target ([1]; 72 hours, E/T 40:1, 25 mg/kg/day i.p., repeated experiment, C57B16 mice): 11.9 ± 0.4%; % lysis of tumor target ([1]; 72 hours, E/T 40:1, 100 mg/kg/day os, B6 D2 F1): 41.5 ± 1.3%; % lysis of tumor target ([1]; 72 hours, E/T 80:1, 25 mg/kg/day i.p., repeated experiment, C57B16 mice): 30.9 ± 0.1%; % lysis of tumor target ([1]; 72 hours, E/T 80:1, 100 mg/kg/day os, B6 D2 F1): 44.4 ± 0.3%; MTD at 168 h ([2]; iv): > 4 mg/kg; MTD at 168 h ([2]; po, os, fasting 18 hours): > 20 mg/kg; LD50 (LD50, intravenous): 28.3 mg/kg
COc1cc2c(cc1OC)CC(NCC(O)c1ccc(C)cc1)CC2 (stereo not drawn) [ST 563, 2-[(N-2-hydroxy-2-(4-methylphenyl)ethyl)amino]-6,7-dimethoxytetraline]	9.1 ± 0.2%	7.7 ± 0.6%	15.4 ± 0.2%	9.4 ± 0.7%	16.0 ± 1.0%	11.0 ± 0.1%	12.7 ± 0.5%	18.3 ± 0.1%	14.9 ± 0.9%	22.2 ± 1.4%	1.31	0.84	666 ± 16 ×10^-3	619 ± 12 ×10^-3	4.02	0.41	3715 ± 200 ×10^-3	3501 ± 360 ×10^-3	2.17	217 ± 14 ×10^-3	MTD at 168 h ([2]; iv): > 20 mg/kg; MTD at 168 h ([2]; po, os, fasting 18 hours): > 50 mg/kg
